This note sets out measurements from ChEMBL document CHEMBL1141045, “Cyclic sulfamide gamma-secretase inhibitors” (Bioorg Med Chem Lett, 2005).

Data set [1] is described as follows: AUC after administration of 1 (mpk) to rat through oral route. Type of data set: ADME, organism-based. The settings on record: plasma, 1 mg/kg.
The target of another data set is Gamma-secretase. Kind of data set: Inhibitory concentration against gamma-secretase in whole cell SH-SY5Y assay. Type of data set: protein-complex assay.
The test system of another data set is Rattus norvegicus. Kind of data set: (§1) AUC after administration of 30 (mpk) to rat through oral route. Type of data set: ADME, organism-based, Plasma. Particulars: in vivo, 30 mg/kg.
Data set [2] in a line: AUC after administration of 4 (mpk) to rat through oral route. The class given is ADME, organism-based. The settings on record: plasma, 4 mg/kg.
Data set [3] can be described thus: as §1. Particulars: plasma, 30 mg/kg. The class given is ADME, organism-based, Plasma.

Turning to `CCCN1C[C@]2(NS1(=O)=O)[C@@H]1CC[C@H]2Cc2ccc(/C=C/CN3CCOCC3)cc2C1`, the AUC in data set [1] came out at 1.19 µM·h. In addition, on Gamma-secretase, the IC50 (in general, the concentration that gives 50% inhibition) amounted to 19 nM. On the same counts, the results for `CCCN1C[C@]2(NS1(=O)=O)[C@@H]1CC[C@H]2Cc2ccccc2C1` are 0.1 µM·h and 138 nM. As to `CCCN1C[C@]2(NS1(=O)=O)[C@@H]1CC[C@H]2Cc2ccc(/C=C/CN3CCC(C(F)(F)F)CC3)cc2C1`, half-maximal inhibition against Gamma-secretase (IC50) required 2 nM. For `O=S(=O)(N[C@H]1[C@@H]2CC[C@H]1Cc1ccccc1C2)c1ccc(Cl)s1`, the AUC with Rattus norvegicus was found to be 0.01 uMh. Take `CCN1C[C@]2(NS1(=O)=O)[C@@H]1CC[C@H]2Cc2ccccc2C1`: at Gamma-secretase, the IC50 turned out to be 429 nM. The same measure, in the same setting: to `O=S1(=O)N[C@@]2(CN1C(F)(F)F)[C@@H]1CC[C@H]2Cc2ccccc2C1` belongs 17 nM. As for `O=S1(=O)N[C@@]2(CN1CC(F)(F)F)[C@@H]1CC[C@H]2Cc2ccc(/C=C/CN3CCC(C(F)(F)F)CC3)cc2C1`, the midpoint of inhibition against Gamma-secretase, the IC50, lay at 0.5 nM.

On Gamma-secretase, `CC(=O)N1CCN(C/C=C/c2ccc3c(c2)C[C@H]2CC[C@@H](C3)[C@]23CN(CC(F)(F)F)S(=O)(=O)N3)CC1` returned an IC50 of 4 nM. On Gamma-secretase, `CCCCN1C[C@]2(NS1(=O)=O)[C@@H]1CC[C@H]2Cc2ccccc2C1` had a half-inhibitory concentration (IC50) of 122 nM. On the same count and under the same terms, to `CCCCNS(=O)(=O)N[C@H]1[C@@H]2CC[C@H]1Cc1ccccc1C2` belongs 766 nM. Still for that read-out and setting: to `CN1CCN(C/C=C/c2ccc3c(c2)C[C@H]2CC[C@@H](C3)[C@]23CN(CC(F)(F)F)S(=O)(=O)N3)CC1=O` belongs 21 nM; to `O=S(=O)(N[C@H]1[C@@H]2CC[C@H]1Cc1ccccc1C2)NC(F)(F)F`, 134 nM; to `CCNS(=O)(=O)N[C@H]1[C@@H]2CC[C@H]1Cc1ccccc1C2`, 394 nM.

`O=S1(=O)N[C@@]2(CN1CC(F)(F)F)[C@@H]1CC[C@H]2Cc2ccc(/C=C/CN3CCCCC3)cc2C1` returned a 50% inhibitory concentration (IC50) on Gamma-secretase of 250 nM. In data set [2], `O=S(=O)(NC1[C@@H]2CC[C@H]1Cc1ccc(/C=C/CN3CCOCC3)cc1C2)c1ccc(Cl)s1` (some centres not stated) registered an AUC of 0.38 µM·h. 1 nM corresponded to half-maximal inhibition on Gamma-secretase (IC50). Compound `CC1CCN(C/C=C/c2ccc3c(c2)C[C@H]2CC[C@@H](C3)[C@]23CN(CC(F)(F)F)S(=O)(=O)N3)CC1` registered an IC50 at Gamma-secretase of 18 nM. On the same count and under the same terms, next, `O=S1(=O)N[C@@]2(CN1CC(F)(F)F)[C@@H]1CC[C@H]2Cc2ccc(/C=C/CN3CCOCC3)cc2C1`: 3.4 nM. For the compound `CCCNS(=O)(=O)N[C@H]1[C@@H]2CC[C@H]1Cc1ccccc1C2`, the AUC in data set [3] was determined as 0.6 µM·h. The IC50 at Gamma-secretase was determined as 132 nM.
